Test system: human squamous carcinoma clone cancer cell line (SCC-1)
Assay: In-vitro effect on SCC-1 cell growth (cell viability by Coulter Counter)
Assay type: cell-based
Settings: for Cell Count/mL: SCC-1 cells, two days after treatment at 37° C., untreated (0 μM) 5.70 × 10^5
Protocol: The in-vitro effects of sample #01 1700 on human squamous carcinoma clone cancer cell line (SCC-1).
All cell culture plasticware was purchased from Fisher. Media and antibiotics were purchased from Gibco and Sigma.
Cell viability using a Coulter Counter is used to quantify toxicity. SCC-^1 cells are grown in MEM media containing 10% Fetal Bovine Serum, 100 units/ml penicillin, 100 1μ/ml streptomycin, and 2.5 μg/ml fungizone at 37° C. in a 5% CO2 incubator. A 6 well dish is inoculated to 2.0×10^5 cells/well in a total volume of media of 2 ml. Incubation occurs overnight and the cells are ready for treatment the next day.
Stock solution of sample #01 1700 is sterile filtered with a 0.22 μm low protein binding syringe filter. Dilutions are made in fresh MEM-10% FBS.
Two days after treatment at 37° C., cells are harvested and quantified using a Coulter Counter. To harvest, all media is removed and 1 ml of 1× trypsin solution is added per well. Tryspin is in the well for approximately 5 minutes at 37° C. After 5 minutes, 1 ml of fresh MEM-10% FBS is added per well. Upon vigorous mixing to ensure breakup of aggregate cells, dilutions are made in Isoton®II ready for cell counts. Each well is counted twice. Thus, duplicate wells plus duplicate counts yield 4 cell counts per parameter above.

## CC(N)C(=O)O.CC(N)C(=O)O.[Cl][Pt][Cl] (stereo not drawn) [#011700, PtCl2[CH3CH(NH)2COOH]2]
20 μM #011700
  Cell Count/mL: 600000 mL⁻¹
30 μM #011700
  Cell Count/mL: 580000 mL⁻¹
40 μM #011700
  Cell Count/mL: 520000 mL⁻¹
50 μM #011700
  Cell Count/mL: 440000 mL⁻¹
60 μM #011700
  Cell Count/mL: 380000 mL⁻¹
20-60 μM, two days after treatment
  inhibition of the growth of SCC-1 cells in-vitro: shows inhibition of the growth

— US6458832B1, “Carboplatin analogs for cancer treatment” (Unitech Pharmaceuticals, Inc., priority 1999, dated 2002)
